We go through five compounds from patent US20080096958A1, “Antibacterial Composition” (priority 2004, published 2008).

Values after ≈ are worked out from the molar mass of the structure shown. Read-outs that look alike come from different tables or passages of the source.

Assay type in all cases: cell-based
Experiment [1] concerns Staphyrococcus epidermidis ATCC 12228. Put plainly: MIC by Agar Dilution Test, Se-3. To be noted: read-out: Minimum inhibitory concentration (MIC). How it is done:
(§1) Minimum inhibitory concentration (MIC) was determined by Agar Dilution Test (ADT).
(§2) Each antibacterial composition obtained in Example 1 was dissolved in ethanol or water (according to solubility of each antibacterial composition) to carry out two-fold serial dilution. A hundred μl of the resultant was added to a 10 ml sterilized agar medium (skin-related bacteria and standard bacteria in Mueller-Hinton Medium (Difco), yeast and filamentous bacteria in Sabroud Medium (Difco) and anaerobic bacteria in Trypticase Soy agar (BBL)), well agitated, transferred to a 9 cmf petri dish and immobilized at room temperature. To this petri dish, a 27-spot microplanter MIT-P from Sakuma Seisakusho, LTD. was used to spot 1×10^5 cfu (colony forming unit) of skin-related bacteria and standard bacteria, and the resultants were cultured at 37° C. for 18 hours. Anaerobic bacteria are cultured at 37° C. for 72 hours under anaerobic conditions (using BBL gas pack anaerobic system). After completion of cultivation, growth of each bacterium was compared with that in a petri dish with alcohol alone (blank). A concentration of a sample without a bacterium growth was determined as the minimum inhibitory concentration (MIC).
(§3) As comparative substances, butylparaben (BPHB) and triclosan were determined as well.

Experiment [2] has as its system Actinomyces naeslundii JCM 8350. Put plainly: MIC by Agar Dilution Test, Aa-1. The note with it: read-out: Minimum inhibitory concentration (MIC). How it is done: as §1, §2, §3
Experiment [3] concerns Malassezia furfur IFO 0656. Put plainly: MIC by Agar Dilution Test, Mf-1. To be noted: read-out: Minimum inhibitory concentration (MIC). The protocol: as §1, §2, §3
Experiment [4] deals with Staphyrococcus epidermidis var. h-6. Put plainly: MIC by Agar Dilution Test, Se-2. To be noted: read-out: Minimum inhibitory concentration (MIC). How it is done: as §1, §2, §3
In experiment [5] the test system is Staphyrococcus aureus ATCC 6538. Put plainly: MIC by Agar Dilution Test, Sa-4. To be noted: read-out: Minimum inhibitory concentration (MIC). The protocol: as §1, §2, §3
(§4) Minimum inhibitory concentration was determined by Agar Dilution Test described in Example 3 to confirm the difference of antibacterial activities at different mixture ratios.

In experiment [6] the test system is Corynebacterium xerosis JCM 1324. Put plainly: MIC by Agar Dilution Test, Cx-2. To be noted: read-out: Minimum inhibitory concentration (MIC). The protocol: as §1, §2, §3
Experiment [7] has as its system Bacteroides fragilis GM 7000 JCM 5560. Put plainly: MIC by Agar Dilution Test, Bf-1. To be noted: read-out: Minimum inhibitory concentration (MIC). The protocol: as §1, §2, §3, §4
In experiment [8] the test system is Propionibacterium acnes JCM 6473. Nature of the experiment: MIC by Agar Dilution Test, Pa-2. The note with it: Cutibacterium acnes, read-out: Minimum inhibitory concentration (MIC). How it is done:
as §1, §2, §3

The test system of experiment [9] is Staphyrococcus epidermidis JCM 2414. Put plainly: MIC by Agar Dilution Test, Se-1. The note with it: read-out: Minimum inhibitory concentration (MIC). How it is done: as §1, §2, §3
The test system of experiment [10] is Staphyrococcus aureus 209P IAM 12082. Nature of the experiment: MIC by Agar Dilution Test, Sa-3. The note with it: read-out: Minimum inhibitory concentration (MIC). The protocol: as §1, §2, §3
Experiment [11] has as its system Bacillus subtilis PCI 219 IFO 3134. Nature of the experiment: MIC by Agar Dilution Test, Bs-1. The note with it: read-out: Minimum inhibitory concentration (MIC). How it is done: as §1, §2, §3, §4
Experiment [12] has as its system Prevotella intermedia JCM 6322. Put plainly: MIC by Agar Dilution Test, Pt-1. The note with it: read-out: Minimum inhibitory concentration (MIC). How it is done: as §1, §2, §3, §4
Experiment [13] deals with Porphyromonas gingivalis JCM 8525. Put plainly: MIC by Agar Dilution Test, Pg-1. The note with it: read-out: Minimum inhibitory concentration (MIC). The protocol:
as §1, §2, §3

The test system of experiment [14] is Actinomyces viscosus JCM 8352. Put plainly: MIC by Agar Dilution Test, Av-1. The note with it: read-out: Minimum inhibitory concentration (MIC). The protocol: as §1, §2, §3
In experiment [15] the test system is Fusobacterium nucleatum JCM 6328. Put plainly: MIC by Agar Dilution Test, Fn-1. To be noted: read-out: Minimum inhibitory concentration (MIC). How it is done: as §1, §2, §3
The subject of experiment [16] is Alicyclobacillus Acidoterrestris (NCIMB). Nature of the experiment: MIC using heat-resistant acidophilic bacteria (liquid medium, turbidity). The note with it: spores in AAM liquid medium, 50° C., 10 days; growth inhibited in all five media. The protocol:
(§5) Spores of Alicyclobacillus Acidocaldarius (NCIMB) and Alicyclobacillus Acidoterrestris (NCIMB) were diluted with buffered saline to 1-2 million/100 μl, heated at 80° C. for 10 minutes, and added for 100 μl each per 5 ml of AAM (Alicyclobacillus Acidoterrestris medium) liquid medium. To the test media prepared as above, antibacterial composition (A) obtained in Example 1 was added according to the following steps. Twenty mg/ml, 10 mg/ml, 5 mg/ml and 2.5 mg/ml antibacterial composition (A) in grapefruit flavors were added to respective media (0.1%) (final concentration of antibacterial composition (A): 20 ppm, 10 ppm, 5 ppm and 2.5 ppm). As controls, a medium with 0.1% grapefruit flavor and a blank medium were prepared to confirm that the bacteria grow without a problem. The thus-prepared media were cultured at 50° C. for 10 days, bacteria growth was determined based on the turbidity of the media associated with proliferation of bacteria, thereby checking growth control effects. For each test bacterium and each sample, five media were subjected to the experiment, and a concentration at which bacteria in every media were inhibited was determined as the minimum inhibitory concentration (MIC).
(§6) For comparison, sucrose fatty acid ester was also determined.

The test system of experiment [17] is Alicyclobacillus Acidocaldarius (NCIMB). The description is as above. To be noted: spores in AAM liquid medium, 50° C., 10 days; growth inhibited in all five media. The protocol:
as §5, §6

Where [18] appears, read: Se-3, Mueller-Hinton agar, 37° C., 18 hours.
The mark [19] stands for this setting: JCM8350, Aa-1, Trypticase Soy agar, 37° C., 72 hours, anaerobic.
The mark [20] stands for this setting: Mf-1 (yeast), Sabroud Medium agar.
Setting [21] is: Se-2, Mueller-Hinton agar, 37° C., 18 hours.
The mark [22] stands for this setting: Sa-4, Mueller-Hinton agar, 37° C., 18 hours.
The mark [23] stands for this setting: JCM1324, Cx-2, Mueller-Hinton agar, 37° C., 18 hours.
The mark [24] stands for this setting: JCM5560, Bf-1, Trypticase Soy agar, 37° C., 72 hours, anaerobic.
[25] abbreviates: JCM6473, Pa-2, Trypticase Soy agar, 37° C., 72 hours, anaerobic.
Where [26] appears, read: Se-1, Mueller-Hinton agar, 37° C., 18 hours.
Setting [27] is: Sa-3, Mueller-Hinton agar, 37° C., 18 hours.
Setting [28] is: IFO3134, Bs-1, Mueller-Hinton agar, 37° C., 18 hours.
The mark [29] stands for this setting: JCM6322, Pt-1, Trypticase Soy agar, 37° C., 72 hours, anaerobic.
The mark [30] stands for this setting: JCM8525, Pg-1, Trypticase Soy agar, 37° C., 72 hours, anaerobic.
Where [31] appears, read: JCM8352, Av-1, Trypticase Soy agar, 37° C., 72 hours, anaerobic.
Setting [32] is: JCM6328, Fn-1, Trypticase Soy agar, 37° C., 72 hours, anaerobic.

As to `CCCCOC(=O)c1ccc(O)cc1` [Butylparaben, butylparaben, reference compound], the MIC in experiment [1] (18 h) was 200 µg/mL (≈ 1030 µM); in experiment [2] (JCM8350, 72 h), 100 µg/mL (≈ 515 µM); in experiment [3], 100 µg/mL (≈ 515 µM); in experiment [4] (18 h), 200 µg/mL (≈ 1030 µM); in [5] (18 h) it was 200 µg/mL (≈ 1030 µM); in [6] (JCM1324, 18 h) it was 50 µg/mL (≈ 257 µM). In addition, the MIC in experiment [7] (JCM5560, 72 h) worked out at 50 µg/mL (≈ 257 µM); in experiment [8] (JCM6473, 72 h) it was 100 µg/mL (≈ 515 µM); in [9] (18 h), 200 µg/mL (≈ 1030 µM); in experiment [10] (18 h), 100 µg/mL (≈ 515 µM); in experiment [11] (IFO3134, 18 h), 200 µg/mL (≈ 1030 µM); in experiment [12] (JCM6322, 72 h), 100 µg/mL (≈ 515 µM). For the same compound, the MIC amounted to 50 µg/mL (≈ 257 µM) in [13] (JCM8525, 72 h); 100 µg/mL (≈ 515 µM) in [14] (JCM8352, 72 h); 100 µg/mL (≈ 515 µM) in experiment [15] (JCM6328, 72 h).
Regarding `Oc1cc(Cl)ccc1Oc1ccc(Cl)cc1Cl` [Triclosan, triclosan, reference compound], the MIC in [1] (18 h) worked out at 1.6 µg/mL (≈ 5.53 µM); in [3] it was 1.6 µg/mL (≈ 5.53 µM); in experiment [4] (18 h), 1.6 µg/mL (≈ 5.53 µM); in [5] (18 h), 1.6 µg/mL (≈ 5.53 µM); in experiment [6] (JCM1324, 18 h), 3.1 µg/mL (≈ 10.7 µM); in [9] (18 h) it was 1.6 µg/mL (≈ 5.53 µM). Moreover, the MIC in [10] (18 h) came out at 1.6 µg/mL (≈ 5.53 µM); in [11] (IFO3134, 18 h) it was 0.78 µg/mL (≈ 2.69 µM).
In the case of `CC(C)=CCC/C(C)=C\Cc1c2occc2c(O)c2ccc(=O)oc12` [Antibacterial composition (G), 9-(3′,7′-dimethyl-2′,6′-octadienyl)-4-hydroxy-7H-furo[3,2-γ][1]benzopyran-7-one], the MIC in experiment [1] (setting [18]) came to 200 µg/mL (≈ 591 µM); in [2] (setting [19]), 200 µg/mL (≈ 591 µM); in [3] (setting [20]), 50 µg/mL (≈ 148 µM); in [4] (setting [21]), 200 µg/mL (≈ 591 µM); in experiment [5] (setting [22]) it was 200 µg/mL (≈ 591 µM); in [6] (setting [23]), 200 µg/mL (≈ 591 µM). The MIC came to 100 µg/mL (≈ 296 µM) in [7] (setting [24]); 100 µg/mL (≈ 296 µM) in [8] (setting [25]); 200 µg/mL (≈ 591 µM) in experiment [9] (setting [26]); 100 µg/mL (≈ 296 µM) in experiment [10] (setting [27]); 200 µg/mL (≈ 591 µM) in experiment [11] (setting [28]); 100 µg/mL (≈ 296 µM) in experiment [12] (setting [29]). For the same compound, the MIC in experiment [13] (setting [30]) worked out at 50 µg/mL (≈ 148 µM); in [14] (setting [31]) it was 100 µg/mL (≈ 296 µM); in experiment [15] (setting [32]) it was 50 µg/mL (≈ 148 µM).
With `COc1cc(O)c2ccc(=O)oc2c1C/C=C(/C)CCC=C(C)C` [Antibacterial composition (F), 8-(3′,7′-dimethyl-2′,6′-octadienyl)-5-hydroxy-7-methoxy-2H-1-benzopyran-2-one], the MIC in [1] (setting [18]) is 200 µg/mL (≈ 609 µM); in experiment [2] (setting [19]) it was 25 µg/mL (≈ 76.1 µM); in experiment [3] (setting [20]) it was 25 µg/mL (≈ 76.1 µM); in [4] (setting [21]) it was 200 µg/mL (≈ 609 µM); in experiment [5] (setting [22]), 200 µg/mL (≈ 609 µM); in experiment [6] (setting [23]), 200 µg/mL (≈ 609 µM). In addition, the MIC in experiment [7] (setting [24]) was 100 µg/mL (≈ 304 µM); in experiment [8] (setting [25]), 25 µg/mL (≈ 76.1 µM); in experiment [9] (setting [26]) it was 200 µg/mL (≈ 609 µM); in experiment [10] (setting [27]) it was 25 µg/mL (≈ 76.1 µM); in [11] (setting [28]) it was 200 µg/mL (≈ 609 µM); in experiment [12] (setting [29]), 100 µg/mL (≈ 304 µM). For the same compound, the MIC in [13] (setting [30]), in experiment [14] (setting [31]) and in experiment [15] (setting [32]) was 25 µg/mL (≈ 76.1 µM) each time.
Regarding sucrose fatty acid ester, the “Minimum inhibitory concentration (MIC)” value in [16] and in [17] was 20 ppm throughout.
